# In US9914910B2, “Methods of preserving and protecting pancreatic beta cells and treating or preventing diabetes by inhibiting NOX-1” (Eastern Virginia Medical School, priority 2013, dated 2018):
# What was measured:
# human colon cancer cells = settings: cited from earlier work
# INS-1 cells [1] = experiment: Apoptosis by YO-PRO-1 fluorescence microscopy after PIC; type: cell-based, rat; settings: INS-1, PIC 24 hours, p<0.001
# Description: (§1) B. Fluorescence microscopy: Stimulated cells or islets were washed in cold PBS, and incubated for 30 mins at 40 C with cold PBS containing 1 μg/mL propidium iodide and 0.1 μM YO-PRO-1 (Life Technologies). For cell lines, five randomly fields per well were analyzed. For islets, all islets (>1000 um2 in size) were analyzed. Densitometric fluorescent value for YO-PRO-1 (green channel) was normalized to background and expressed proportional to cell occupied area (phase contrast). Images captured across three channels with Axiophot (Zeiss, Jena, Germany) with Axiovision (Zeiss) image analysis.
# INS-1 cells [2] = experiment: Glucose-stimulated insulin secretion (GSIS) after PIC; type: cell-based, rat; settings: INS-1, 1 mM vs 16 mM glucose, p<0.05
# Description: (§2) Treated islets or cells then were washed with PBS and placed in 1 mL serum-free Kreb-Ringer buffer (115 mM NaCl, 24 mM NaHCO3, 5 mM KCl, 1 mM MgCl2, and 25 mM HEPES) for 1 hour at 370 C. Low (1 mM) or high (16 mM) glucose was added for […] for 30 min. Insulin levels in media were measured by ELISA (Mercodia, Winston Salem, N.C.) as per the manufacturer's instructions.
# FIG. 4: Treatment of homogeneous rat beta cell line (INS-1) with pro-inflammatory cytokines (PIC) (TNFα, IL-1β, IFNγ) disrupts beta cell function measured by glucose-stimulated-insulin-secretion. Control (non cytokine-treated) cells respond to glucose elevation ([…]) by increasing insulin secretion. Insulin levels are plotted. In the presence of inflammatory cytokines (PIC) this response is lost and the dysfunctional cells ‘leak’ insulin. […] (*p<0.05, **p<0.01).
# [3] = system: NOX-1 gene expression in INS-1 cells; experiment: PIC-induced NOX-1 gene expression (RT-PCR); type: cell-based, rat; settings: INS-1, PIC 24 hours
# Description: (§3) Total RNA was isolated using the RNeasy Mini Kit (Qiagen, Valencia, Calif.) and cDNA prepared using MMLV reverse transcriptase (Life Technologies) and random hexamers (Life Technologies). Jump Start Taq polymerase (Life Technologies) was used in PCR reactions. […] RT-PCR reactions were performed in triplicate (CFX96 Bio-Rad, Hercules, Calif.). Taqman primers (Life Technologies) were also used. Data was normalized to the housekeeping gene GAPDH and analyzed using the 2-ΔΔCT method.
# primary mouse islets = experiment: Glucose-stimulated insulin secretion (GSIS) after PIC; type: cell-based; settings: 10 μM ML171, 1 mM vs 16 mM glucose
# Description: (§4) Human donor islets were obtained from integrated islet distribution project (http://iidp.coh.org) and cultured in CMRL media (Mediatech, Manassas, Va.). Mouse islets were freshly isolated from 8-week old male C57BL/6J mice (Jackson Laboratory, Bar Harbor, Me.) by common bile duct cannulation and collagenase digestion. Islets were hand picked prior to use.
# as §2
# [4] = system: primary human donor islets; experiment: Apoptosis by YO-PRO-1 fluorescence microscopy after PIC; type: cell-based; settings: 10 μM ML171
# Description: as §4, §1
# βTC-3 cells [5] = experiment: Glucose-stimulated insulin secretion (GSIS) after PIC; type: cell-based, mouse; settings: βTC-3, 1 mM vs 16 mM glucose, p<0.01
# Description: as §2
# [6] = system: NOX-1 protein in INS-1 cells; experiment: NOX-1 protein expression (western blot); type: cell-based; settings: Rattus norvegicus, INS1, 24 h; read-out: inhibition of PIC induction of NOX-1 protein
# Description: (§5) Cells were then lysed (1× PBS, 1% Triton X-100, 1 mM PMSF, 1 mM Halt Protease Inhibitor Cocktail (Pierce, Rockford, Ill.), 1 mM NaVO4), and incubated on ice for 20 min. Cleared (14,000 rpm, 15 min, 4° C.) lysate was collected. Proteins separated on 10% Tris-glycine gels (Life Technologies) were transferred onto PDVF (Immobilon-FL, Millipore, Billerca, Mass.). Membranes were blocked in TBS/0.05% Tween (Sigma) plus 5% non-fat milk (Bio-Rad) for 1 hr at room temperature before incubation overnight at 40 in primary antibody with gentle shaking. The membrane was washed between antibody cycles four times for 5 min each in TBS/Tween (0.05%). Primary antibodies: 1:250 Anti-NOX-1 or 1:1000 β-actin 1 (Abcam, Cambridge, Mass.).
# (§6) Signal detected with 1:2000 HRP-secondary antibody for 1 hour (GE Healthcare, Buckinghamshire, UK) SuperSignal Chemiluminescent Substrate (Thermo Scientific, Rockford, Ill.) on a ChemiDoc XRS System (Bio-Rad). Densitometry was determined using Image J (http://rsb-web.nih.gov/i/).
# [7] = system: NOX-1 protein in βTC-3 cells; experiment: NOX-1 protein expression (western blot); type: cell-based; settings: Mus musculus, 24 h; read-out: inhibition of PIC induction of NOX-1 protein
# Description: as §5, §6
# [8] = system: NOX-1 protein in piglet islets; experiment: PIC-induced NOX-1 protein in piglet islets; type: cell-based; settings: 1 μM, 18 hours
# Description: The methods disclosed herein may also be utilized in the preparation of viable xenotransplantable porcine islets and/or the treatment of a mammalian patient (including humans) suffering from diabetes involving the transplantation into the mammal of viable porcine islets capable of producing insulin within the host. Piglet islets are candidates for xenotransplantation of piglet islets with cytokines (PIC; TNF, IL-1, IFN) induced expression of NOX-1 protein. […] Islets were treated for 18 hours. Data supports feedforward regulation of NOX-1 expression and effective uncoupling of this pathway in piglet islets by inhibition of NOX-1 activity.
# βTC-3 cells [9] = experiment: Apoptosis by YO-PRO-1 fluorescence microscopy after PIC; type: cell-based, mouse; settings: βTC-3, PIC 24 hours, p<0.001
# Description: as §1
# [10] = system: MCP-1, IL-12p40, IL-12 p35, IFNγ gene expression in primary mouse islets; experiment: Cytokine-induced target gene expression (real time PCR); type: cell-based; settings: NCTT-1 100 nM, ML171 1 μM
# Description: as §3
# Data is quantitative real time PCR gene expression analysis from triplicate experiments performed in replicate. Fold induction in gene expression over control (non cytokine-treated) islets is graphed.
smiles,measurement,setting,value
"CC(=O)c1ccc2c(c1)Nc1ccccc1S2 [ML171, 2-acetylphenothiazine]",NOX-1 activity in human colon cancer cells,human colon cancer cells,inhibits NOX-1 activity
same,PIC-induced apoptosis (YO-PRO-1),INS-1 cells [1],apoptosis was significantly decreased
same,glucose-stimulated insulin secretion with PIC,INS-1 cells [2],restoring the glucose-sensitive insulin response
same,inhibition of PIC-induced expression of NOX-1 gene,[3],33%
same,glucose stimulated insulin response with PIC,primary mouse islets,partially restored
same,reduction of beta-cell apoptosis induced by PICs,[4],30%±3%
same,glucose-stimulated insulin secretion with PIC,βTC-3 cells [5],restoring the glucose-sensitive insulin response
same,inhibition at 1 µM,[6],100%
same,inhibition at 1 µM,[7],100%
same,PIC-induced NOX-1 protein,[8],reduces PIC-induced NOX-1 protein
same,PIC-induced apoptosis (YO-PRO-1),βTC-3 cells [9],apoptosis was significantly decreased
same,induction of gene IFNγ by PIC,[10],attenuated
same,induction of gene IL-12 p35 by PIC,[10],attenuated
same,induction of gene IL-12p40 by PIC,[10],attenuated
same,induction of gene MCP-1 by PIC,[10],attenuated
